The source of these data is patent publication US9340590B2 (priority 2011, dated 2016).

Like-named read-outs stand apart in the source and are kept apart here. Positions of bridges follow the written chain, without caps; N, C: chain ends. Non-standard residues stand in square brackets, D forms with d. Residues, ends and D or L forms follow the SMILES beside them. 1Nal = N[C@@H](Cc1cccc2ccccc12)C(=O)O

Holding throughout (test): cell-based
The target of assay [1] is hNav1.3 (Homo sapiens, UniProt Q9NY46). The assay is classed as cell-based. The conditions noted are these: Nav1.3 Use IC50.
hNav1.3, sequence (Q9NY46 whole entry, looked up): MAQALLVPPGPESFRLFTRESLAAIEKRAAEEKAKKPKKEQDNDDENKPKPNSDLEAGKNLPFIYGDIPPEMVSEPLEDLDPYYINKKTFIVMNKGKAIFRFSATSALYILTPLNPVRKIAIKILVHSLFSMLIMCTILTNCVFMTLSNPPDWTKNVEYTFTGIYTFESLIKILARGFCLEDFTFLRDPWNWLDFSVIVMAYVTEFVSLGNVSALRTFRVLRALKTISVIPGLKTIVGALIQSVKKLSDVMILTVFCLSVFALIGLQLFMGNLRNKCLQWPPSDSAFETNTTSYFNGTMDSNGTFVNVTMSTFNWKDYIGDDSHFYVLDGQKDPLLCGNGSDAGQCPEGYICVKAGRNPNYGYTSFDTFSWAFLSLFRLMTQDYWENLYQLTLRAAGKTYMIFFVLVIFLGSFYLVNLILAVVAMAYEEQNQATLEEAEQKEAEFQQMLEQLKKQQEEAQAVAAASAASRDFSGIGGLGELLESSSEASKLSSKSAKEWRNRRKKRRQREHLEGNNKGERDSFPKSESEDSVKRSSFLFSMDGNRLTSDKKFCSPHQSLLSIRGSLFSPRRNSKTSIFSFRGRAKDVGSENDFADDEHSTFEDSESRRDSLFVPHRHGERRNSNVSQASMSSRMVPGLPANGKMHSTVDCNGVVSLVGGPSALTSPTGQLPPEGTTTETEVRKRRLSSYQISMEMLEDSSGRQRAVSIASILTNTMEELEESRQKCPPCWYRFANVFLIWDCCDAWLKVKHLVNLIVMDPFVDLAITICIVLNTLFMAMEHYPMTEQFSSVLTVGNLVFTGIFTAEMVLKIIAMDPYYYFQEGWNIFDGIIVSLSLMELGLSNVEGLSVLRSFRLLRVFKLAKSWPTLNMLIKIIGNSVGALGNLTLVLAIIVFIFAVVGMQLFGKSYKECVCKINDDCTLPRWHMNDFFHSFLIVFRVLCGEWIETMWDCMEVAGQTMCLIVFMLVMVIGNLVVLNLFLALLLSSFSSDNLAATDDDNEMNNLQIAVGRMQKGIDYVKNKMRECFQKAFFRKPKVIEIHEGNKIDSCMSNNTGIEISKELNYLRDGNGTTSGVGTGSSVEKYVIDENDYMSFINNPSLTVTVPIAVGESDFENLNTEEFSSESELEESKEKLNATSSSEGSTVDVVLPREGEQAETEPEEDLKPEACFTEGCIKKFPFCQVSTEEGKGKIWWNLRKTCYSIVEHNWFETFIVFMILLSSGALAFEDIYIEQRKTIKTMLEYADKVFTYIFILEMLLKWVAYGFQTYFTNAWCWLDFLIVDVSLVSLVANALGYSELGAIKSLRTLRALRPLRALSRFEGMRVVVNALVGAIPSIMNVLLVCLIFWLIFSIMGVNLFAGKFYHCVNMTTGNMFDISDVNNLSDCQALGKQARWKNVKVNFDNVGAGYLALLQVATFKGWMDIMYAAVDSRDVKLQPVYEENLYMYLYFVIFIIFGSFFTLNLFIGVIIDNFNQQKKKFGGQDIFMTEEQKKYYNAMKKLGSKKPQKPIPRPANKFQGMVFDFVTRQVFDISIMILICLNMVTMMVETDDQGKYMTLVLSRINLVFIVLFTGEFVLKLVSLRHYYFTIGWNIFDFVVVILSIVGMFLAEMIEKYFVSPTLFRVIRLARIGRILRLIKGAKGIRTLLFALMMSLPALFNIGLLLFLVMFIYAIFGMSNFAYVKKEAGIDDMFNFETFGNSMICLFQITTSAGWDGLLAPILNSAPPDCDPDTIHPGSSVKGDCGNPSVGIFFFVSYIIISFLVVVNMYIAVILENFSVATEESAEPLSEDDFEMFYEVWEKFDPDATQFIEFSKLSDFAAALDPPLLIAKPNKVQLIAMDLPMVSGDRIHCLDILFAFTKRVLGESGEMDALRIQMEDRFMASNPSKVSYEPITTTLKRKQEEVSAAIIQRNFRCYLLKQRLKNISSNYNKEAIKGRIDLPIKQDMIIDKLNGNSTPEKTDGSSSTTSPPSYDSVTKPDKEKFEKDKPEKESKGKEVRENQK
The target in assay [2] is hNav1.7 (Homo sapiens, UniProt Q15858). The conditions noted are these: Nav1.7 Use IC50.
hNav1.7, sequence (Q15858 whole entry, looked up): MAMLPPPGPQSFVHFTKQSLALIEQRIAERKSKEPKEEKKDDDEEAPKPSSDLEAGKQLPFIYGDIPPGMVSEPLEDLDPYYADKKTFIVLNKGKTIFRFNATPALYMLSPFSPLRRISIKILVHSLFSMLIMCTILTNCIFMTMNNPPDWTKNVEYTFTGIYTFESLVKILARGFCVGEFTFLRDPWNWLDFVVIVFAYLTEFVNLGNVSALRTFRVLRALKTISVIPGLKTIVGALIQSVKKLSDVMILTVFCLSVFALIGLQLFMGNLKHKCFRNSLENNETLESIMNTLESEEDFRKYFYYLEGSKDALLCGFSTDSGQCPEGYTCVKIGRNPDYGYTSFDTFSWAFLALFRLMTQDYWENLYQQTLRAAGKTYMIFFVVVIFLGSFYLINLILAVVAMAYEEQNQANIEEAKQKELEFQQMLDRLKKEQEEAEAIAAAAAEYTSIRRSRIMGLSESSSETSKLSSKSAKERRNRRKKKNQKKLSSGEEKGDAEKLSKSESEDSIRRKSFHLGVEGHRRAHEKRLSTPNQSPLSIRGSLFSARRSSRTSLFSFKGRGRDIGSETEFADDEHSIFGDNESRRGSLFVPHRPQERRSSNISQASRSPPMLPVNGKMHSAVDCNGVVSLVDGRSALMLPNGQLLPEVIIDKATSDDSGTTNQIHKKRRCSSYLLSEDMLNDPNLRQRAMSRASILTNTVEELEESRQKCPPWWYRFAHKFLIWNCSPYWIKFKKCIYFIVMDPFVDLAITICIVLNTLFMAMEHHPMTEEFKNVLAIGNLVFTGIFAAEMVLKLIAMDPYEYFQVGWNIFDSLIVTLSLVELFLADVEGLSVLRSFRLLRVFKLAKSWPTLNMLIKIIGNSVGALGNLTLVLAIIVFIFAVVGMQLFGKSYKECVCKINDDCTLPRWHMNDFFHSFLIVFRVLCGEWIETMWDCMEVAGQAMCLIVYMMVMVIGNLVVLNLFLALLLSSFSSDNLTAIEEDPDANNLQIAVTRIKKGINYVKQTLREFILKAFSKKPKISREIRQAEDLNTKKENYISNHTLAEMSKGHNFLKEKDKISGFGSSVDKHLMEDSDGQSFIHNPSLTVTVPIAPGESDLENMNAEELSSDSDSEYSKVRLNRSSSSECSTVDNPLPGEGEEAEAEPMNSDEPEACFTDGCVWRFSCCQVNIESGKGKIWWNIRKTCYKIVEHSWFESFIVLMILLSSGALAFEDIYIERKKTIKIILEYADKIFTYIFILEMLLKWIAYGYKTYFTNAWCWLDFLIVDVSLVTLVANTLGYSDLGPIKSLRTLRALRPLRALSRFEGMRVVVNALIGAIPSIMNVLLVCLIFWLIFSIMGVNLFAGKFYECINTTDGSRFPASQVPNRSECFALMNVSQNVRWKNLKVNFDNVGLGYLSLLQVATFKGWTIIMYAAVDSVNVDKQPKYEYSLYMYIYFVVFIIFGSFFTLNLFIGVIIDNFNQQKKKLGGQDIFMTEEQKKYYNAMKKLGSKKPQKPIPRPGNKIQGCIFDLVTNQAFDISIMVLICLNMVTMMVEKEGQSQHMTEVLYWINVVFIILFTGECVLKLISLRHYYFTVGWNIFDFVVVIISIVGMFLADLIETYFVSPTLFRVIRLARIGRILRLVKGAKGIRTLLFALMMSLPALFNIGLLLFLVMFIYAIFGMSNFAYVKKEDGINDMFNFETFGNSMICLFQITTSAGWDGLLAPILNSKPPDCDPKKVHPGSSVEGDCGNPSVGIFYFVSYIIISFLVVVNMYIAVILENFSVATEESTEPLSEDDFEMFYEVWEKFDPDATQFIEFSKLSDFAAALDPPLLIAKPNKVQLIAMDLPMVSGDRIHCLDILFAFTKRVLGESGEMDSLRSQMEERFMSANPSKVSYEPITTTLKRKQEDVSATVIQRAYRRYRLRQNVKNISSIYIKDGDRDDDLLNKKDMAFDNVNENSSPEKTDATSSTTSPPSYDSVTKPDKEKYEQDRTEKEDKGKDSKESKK
Assay [3] addresses hNav1.5 (Homo sapiens, UniProt Q14524).

As to `CC[C@H](C)[C@@H]1NC(=O)[C@@H]2CSSC[C@@H]3NC(=O)[C@H](C(C)C)NC(=O)[C@H](CC(C)C)NC(=O)[C@H](CC(N)=O)NC(=O)[C@@H]4CCCN4C(=O)[C@H](CCCNC(=N)N)NC(=O)[C@H](CSSC[C@H](NC(=O)[C@@H](N)CC(=O)O)C(=O)N[C@@H](CC(C)C)C(=O)NCC(=O)N[C@@H](C)C(=O)N[C@@H](CCSC)C(=O)N[C@@H](CCCNC(=N)N)C(=O)N[C@@H](CCCCN)C(=O)N2)NC(=O)[C@H](CSSC[C@@H](C(=O)N[C@@H](CCCCN)C(=O)N[C@@H](Cc2ccc(O)cc2)C(=O)N[C@@H](Cc2cccc4ccccc24)C(=O)N[C@@H](Cc2ccccc2)C(N)=O)NC(=O)[C@H](Cc2c[nH]c4ccccc24)NC(=O)[C@H](CCCCN)NC(=O)[C@H](Cc2c[nH]cn2)NC(=O)[C@H]([C@@H](C)O)NC(=O)[C@H](CCCNC(=N)N)NC(=O)[C@H](CO)NC3=O)NC(=O)[C@H](CCCCN)NC(=O)[C@H](CC(=O)O)NC(=O)[C@H](CC(N)=O)NC(=O)[C@H](CC(=O)O)NC(=O)[C@@H]2CCCN2C1=O` [[Ala5;1-Nal33]GpTx-1(1-34)] (H-DCLGAMRKCIPDNDKCCRPNLVCSRTHKWCKY[1Nal]F-NH2; disulfide 2-17, 9-23, 16-30), the IC50 in assay [1] is 201 nM; in assay [2], 48 nM; in assay [3], greater than 10000 nM.

As for `CC[C@H](C)[C@@H]1NC(=O)[C@@H]2CSSC[C@@H]3NC(=O)[C@H](C(C)C)NC(=O)[C@H](CC(C)C)NC(=O)[C@H](CC(N)=O)NC(=O)[C@@H]4CCCN4C(=O)[C@H](CCCNC(=N)N)NC(=O)[C@H](CSSC[C@H](NC(=O)[C@@H](N)CC(=O)O)C(=O)N[C@@H](CC(C)C)C(=O)NCC(=O)N[C@@H](C)C(=O)N[C@@H](CCSC)C(=O)N[C@@H](CCCNC(=N)N)C(=O)N[C@@H](CCCCN)C(=O)N2)NC(=O)[C@H](CSSC[C@@H](C(=O)N[C@@H](CCCCN)C(=O)N[C@@H](Cc2ccc(O)cc2)C(=O)N[C@H](C(=O)N[C@@H](Cc2ccccc2)C(N)=O)C(C)C)NC(=O)[C@H](Cc2c[nH]c4ccccc24)NC(=O)[C@H](CCCNC(=N)N)NC(=O)[C@H](Cc2c[nH]cn2)NC(=O)[C@H]([C@@H](C)O)NC(=O)[C@H](CCCNC(=N)N)NC(=O)[C@H](CO)NC3=O)NC(=O)[C@H](CCCCN)NC(=O)[C@H](CC(=O)O)NC(=O)[C@H](CC(N)=O)NC(=O)[C@H](CC(=O)O)NC(=O)[C@@H]2CCCN2C1=O` [[Ala5;Arg28]GpTx-1(1-34)] (H-DCLGAMRKCIPDNDKCCRPNLVCSRTHRWCKYVF-NH2; disulfide 2-17, 9-23, 16-30), the figures for the IC50 in assay [1], in assay [2] and in assay [3] were 440 nM, 77 nM and greater than 10000 nM, respectively.

`CC[C@H](C)[C@@H]1NC(=O)[C@@H]2CSSC[C@@H]3NC(=O)[C@H](C(C)C)NC(=O)[C@H](CC(C)C)NC(=O)[C@H](CC(N)=O)NC(=O)[C@@H]4CCCN4C(=O)[C@H](CCCNC(=N)N)NC(=O)[C@H](CSSC[C@H](NC(=O)[C@@H](N)CC(=O)O)C(=O)N[C@@H](CC(C)C)C(=O)NCC(=O)N[C@@H](C)C(=O)N[C@@H](CCSC)C(=O)N[C@@H](CCCNC(=N)N)C(=O)N[C@@H](CCCCN)C(=O)N2)NC(=O)[C@H](CSSC[C@@H](C(=O)N[C@@H](CCCCN)C(=O)N[C@@H](Cc2c[nH]c4ccccc24)C(=O)N[C@H](C(=O)N[C@@H](Cc2ccccc2)C(N)=O)C(C)C)NC(=O)[C@H](Cc2c[nH]c4ccccc24)NC(=O)[C@H](CCCCN)NC(=O)[C@H](Cc2c[nH]cn2)NC(=O)[C@H]([C@@H](C)O)NC(=O)[C@H](CCCNC(=N)N)NC(=O)[C@H](CO)NC3=O)NC(=O)[C@H](CCCCN)NC(=O)[C@H](CC(=O)O)NC(=O)[C@H](CC(N)=O)NC(=O)[C@H](CC(=O)O)NC(=O)[C@@H]2CCCN2C1=O` [[Ala5;Trp32]GpTx-1(1-34)] (H-DCLGAMRKCIPDNDKCCRPNLVCSRTHKWCKWVF-NH2; disulfide 2-17, 9-23, 16-30): the IC50 is 2980 nM in assay [1], 103 nM in assay [2] and greater than 10000 nM in assay [3].

On to `CC[C@H](C)[C@@H]1NC(=O)[C@@H]2CSSC[C@@H]3NC(=O)[C@H](C(C)C)NC(=O)[C@H](CC(C)C)NC(=O)[C@H](CC(N)=O)NC(=O)[C@@H]4CCCN4C(=O)[C@H](CCCNC(=N)N)NC(=O)[C@H](CSSC[C@H](NC(=O)[C@@H](N)CC(=O)O)C(=O)N[C@@H](CC(C)C)C(=O)NCC(=O)N[C@@H](C)C(=O)N[C@@H](CCSC)C(=O)N[C@@H](CCCNC(=N)N)C(=O)N[C@@H](CCCCN)C(=O)N2)NC(=O)[C@H](CSSC[C@@H](C(=O)N[C@@H](CCCCN)C(=O)N[C@@H](Cc2ccc(O)cc2)C(=O)N[C@@H](Cc2c[nH]c4ccccc24)C(=O)N[C@@H](Cc2ccccc2)C(N)=O)NC(=O)[C@H](Cc2c[nH]c4ccccc24)NC(=O)[C@H](CCCCN)NC(=O)[C@H](Cc2c[nH]cn2)NC(=O)[C@H]([C@@H](C)O)NC(=O)[C@H](CCCNC(=N)N)NC(=O)[C@H](CO)NC3=O)NC(=O)[C@H](CCCCN)NC(=O)[C@H](CC(=O)O)NC(=O)[C@H](CC(N)=O)NC(=O)[C@H](CC(=O)O)NC(=O)[C@@H]2CCCN2C1=O` [[Ala5;Trp33]GpTx-1(1-34)] (H-DCLGAMRKCIPDNDKCCRPNLVCSRTHKWCKYWF-NH2; disulfide 2-17, 9-23, 16-30), for which the values for the IC50 in assay [1], in assay [2] and in assay [3] were 569 nM, 34 nM and greater than 10000 nM, respectively.

Consider `CC[C@H](C)[C@@H]1NC(=O)[C@@H]2CSSC[C@@H]3NC(=O)[C@H](C(C)C)NC(=O)[C@H](CC(C)C)NC(=O)[C@H](CC(N)=O)NC(=O)[C@@H]4CCCN4C(=O)[C@H](CCCNC(=N)N)NC(=O)[C@H](CSSC[C@H](NC(=O)[C@@H](N)CC(=O)O)C(=O)N[C@@H](CC(C)C)C(=O)NCC(=O)N[C@@H](Cc4ccccc4)C(=O)N[C@@H](CCSC)C(=O)N[C@@H](CCCNC(=N)N)C(=O)N[C@@H](CCCCN)C(=O)N2)NC(=O)[C@H](CSSC[C@@H](C(=O)N[C@@H](CCCCN)C(=O)N[C@@H](Cc2cccc4ccccc24)C(=O)N[C@H](C(=O)N[C@@H](Cc2ccccc2)C(N)=O)C(C)C)NC(=O)[C@H](Cc2c[nH]c4ccccc24)NC(=O)[C@H](CCCNC(=N)N)NC(=O)[C@H](Cc2c[nH]cn2)NC(=O)[C@H]([C@@H](C)O)NC(=O)[C@H](CCCNC(=N)N)NC(=O)[C@H](CO)NC3=O)NC(=O)[C@H](CCCCN)NC(=O)[C@H](CC(=O)O)NC(=O)[C@H](CC(N)=O)NC(=O)[C@H](CC(=O)O)NC(=O)[C@@H]2CCCN2C1=O` [[Arg28;1-Nal32]GpTx-1(1-34)] (H-DCLGFMRKCIPDNDKCCRPNLVCSRTHRWCK[1Nal]VF-NH2; disulfide 2-17, 9-23, 16-30), for which the IC50 was 6 nM in assay [1], 5 nM in assay [2] and 1060 nM in assay [3].

As to `CC[C@H](C)[C@@H]1NC(=O)[C@@H]2CSSC[C@@H]3NC(=O)[C@H](C(C)C)NC(=O)[C@H](CC(C)C)NC(=O)[C@H](CC(N)=O)NC(=O)[C@@H]4CCCN4C(=O)[C@H](CCCNC(=N)N)NC(=O)[C@H](CSSC[C@H](NC(=O)[C@@H](N)CC(=O)O)C(=O)N[C@@H](CC(C)C)C(=O)NCC(=O)N[C@@H](Cc4ccccc4)C(=O)N[C@@H](CCSC)C(=O)N[C@@H](CCCNC(=N)N)C(=O)N[C@@H](CCCCN)C(=O)N2)NC(=O)[C@H](CSSC[C@@H](C(=O)N[C@@H](CCCCN)C(=O)N[C@@H](Cc2ccc(O)cc2)C(=O)N[C@H](C(=O)N[C@@H](Cc2ccccc2)C(N)=O)C(C)C)NC(=O)[C@H](Cc2c[nH]c4ccccc24)NC(=O)[C@H](CCCNC(=N)N)NC(=O)[C@H](Cc2c[nH]cn2)NC(=O)[C@H]([C@@H](C)O)NC(=O)[C@H](CCCNC(=N)N)NC(=O)[C@H](CO)NC3=O)NC(=O)[C@H](CCCCN)NC(=O)[C@H](CC(=O)O)NC(=O)[C@H](CC(N)=O)NC(=O)[C@H](CC(=O)O)NC(=O)[C@@H]2CCCN2C1=O` [[Arg28]GpTx-1(1-34)], the IC50 was found to be 12 nM in assay [1], 7 nM in assay [2] and 8730 nM in assay [3] (read-out: Nav1.5 Use IC50).

Consider `CC[C@H](C)[C@@H]1NC(=O)[C@@H]2CSSC[C@@H]3NC(=O)[C@H](C(C)C)NC(=O)[C@H](CC(C)C)NC(=O)[C@H](CC(N)=O)NC(=O)[C@@H]4CCCN4C(=O)[C@H](CCCNC(=N)N)NC(=O)[C@H](CSSC[C@H](NC(=O)[C@@H](N)CC(=O)O)C(=O)N[C@@H](CC(C)C)C(=O)NCC(=O)N[C@@H](Cc4ccccc4)C(=O)N[C@@H](CCSC)C(=O)N[C@@H](CCCNC(=N)N)C(=O)N[C@@H](CCCCN)C(=O)N2)NC(=O)[C@H](CSSC[C@@H](C(=O)N[C@@H](CCCCN)C(=O)N[C@@H](Cc2ccc(O)cc2)C(=O)N[C@@H](CCC(N)=O)C(=O)N[C@@H](Cc2ccccc2)C(N)=O)NC(=O)[C@H](Cc2c[nH]c4ccccc24)NC(=O)[C@H](CCCCN)NC(=O)[C@H](Cc2c[nH]cn2)NC(=O)[C@H]([C@@H](C)O)NC(=O)[C@H](CCCNC(=N)N)NC(=O)[C@H](CO)NC3=O)NC(=O)[C@H](CCCCN)NC(=O)[C@H](CC(=O)O)NC(=O)[C@H](CC(N)=O)NC(=O)[C@H](CC(=O)O)NC(=O)[C@@H]2CCCN2C1=O` [[Gln33]GpTx-1(1-34)] (H-DCLGFMRKCIPDNDKCCRPNLVCSRTHKWCKYQF-NH2; disulfide 2-17, 9-23, 16-30), for which the IC50 in assay [1] amounted to 10 nM; in assay [2] it was 6 nM; in assay [3], 8250 nM.

For `CC[C@H](C)[C@@H]1NC(=O)[C@@H]2CSSC[C@@H]3NC(=O)[C@H](C(C)C)NC(=O)[C@H](CC(C)C)NC(=O)[C@H](CC(N)=O)NC(=O)[C@@H]4CCCN4C(=O)[C@H](CCCNC(=N)N)NC(=O)[C@H](CSSC[C@H](NC(=O)[C@@H](N)CC(=O)O)C(=O)N[C@@H](CC(C)C)C(=O)NCC(=O)N[C@@H](Cc4ccccc4)C(=O)N[C@@H](CCSC)C(=O)N[C@@H](CCCNC(=N)N)C(=O)N[C@@H](CCCCN)C(=O)N2)NC(=O)[C@H](CSSC[C@@H](C(=O)N[C@@H](CCCCN)C(=O)N[C@@H](Cc2ccc(O)cc2)C(=O)N[C@@H](CCC(=O)O)C(=O)N[C@@H](Cc2ccccc2)C(N)=O)NC(=O)[C@H](Cc2c[nH]c4ccccc24)NC(=O)[C@H](CCCCN)NC(=O)[C@H](Cc2cnc[nH]2)NC(=O)[C@H]([C@@H](C)O)NC(=O)[C@H](CCCNC(=N)N)NC(=O)[C@H](CO)NC3=O)NC(=O)[C@H](CCCCN)NC(=O)[C@H](CC(=O)O)NC(=O)[C@H](CC(N)=O)NC(=O)[C@H](CC(=O)O)NC(=O)[C@@H]2CCCN2C1=O` [[Glu33]GpTx-1(1-34)] (H-DCLGFMRKCIPDNDKCCRPNLVCSRTHKWCKYEF-NH2; disulfide 2-17, 9-23, 16-30), the IC50 in assay [1] is 52 nM; in assay [2], 27 nM; in assay [3] it was greater than 10000 nM.
